We go through three compounds from patent US20220117966A1, “METHOD OF TREATING FIBROSIS” (AstraZeneca AB, priority 2019, published 2022).

A word on the IC50: it is the concentration that gives 50% inhibition. As usually defined, the Cmax is the peak of the concentration-time curve.

The structures appear in SMILES notation. Like-named read-outs stand apart in the source and are kept apart here.

Data set [1] concerns TGFβ-stimulated NHLF (normal human lung fibroblasts). Nature of the data set: cells. The conditions noted are these: for IC50: Homo sapiens, Fibroblast; for cell viability / cell death / inhibition of αSMA (FIG. 2): TGF-beta1-stimulated human lung fibroblasts. The class given is cell-based. The protocol: Normal human lung fibroblasts from a healthy donor (passage 5) were seeded in 96-well culture plates with 50,000 cells per cm^2 in DMEM culture medium with 10% FBS and 1% penicillin-streptomycin. […]. The cells were incubated for one hour before 0.123 ng/ml TGF-beta1 was added on top of the compound/vehicle treatment and the cells were incubated for 24 hours.
After 24 hours the medium was collected and analysed for IL-6 and the cells were either lysed for RNA isolation, DNA-synthesis and TaqMan quantitative PCR or fixated and stained for alpha-smooth muscle actin (αSMA) and with Hoechst nuclear staining. The percentage of cells staining positive for αSMA and thereby displaying the myofibroblast phenotype was determined using high content image analysis. The Ct-values from the quantitative PCR were normalised against the geomean Ct values of two reference-genes and presented as fold-expression over those reference genes (2^-delta Ct).

Data set [2] has as its system Airway basal cells (ABC) from IPF patients. Nature of the data set: Organoid formation assay. The class given is cell-based, human. The following applies: for organoid formation of airway basal cells (FIGS. 4, 5 and 6): saracatinib 8, 25, 75, 210 or 600 nM, pirfenidone 1 mM, nintedanib 1 μM. As to the method:
Airway Basal Cells (ABCs) either derived from IPF patients or Healthy Volunteers (HV) were cultured in Matrigel® (Corning in a transwell system with or without lung fibroblasts either derived from patients with IPF or normal lung for up-to 35 days in the incubator (5% CO2, 37° C.)).

For data set [3] the following is noted: IPF patients; cited from earlier work.
The conditions of data set [4]: cited from earlier work.
The conditions of data set [5]: IPF patients, cited from earlier work.
Data set [6] in a line: Pharmacokinetics (PK) of saracatinib in the bleomycin model. The class given is in vivo. The conditions noted are these: mouse, mice; for Cmax: Day 21, dosed 1 hour prior to terminal blood draw; for concentration at 21 day: Day 21, not dosed before blood draw, read-out: Cmin +/− SD.
The subject of data set [7] is bleomycin (Bleo) induced lung injury and fibrosis. Nature of the data set: Bleomycin model, lung hydroxyproline levels. It counts as in vivo, mice. The conditions noted are these: saracatinib 1, 3 or 10 mg/kg BID vs pirfenidone 200 mg/kg BID and nintedanib 30 mg/kg BID, from day 7, day 21. As to the method: Bleomycin Sulfate was obtained from Sigma-Aldrich. The IU conversion to enzyme units (U) is approximately 1.5-2 U/mg. For delivery of 4 U/kg in 50 μL, a solution of […] was prepared in 0.9% NaCl. Bleomycin or vehicle was dosed on Day 0 intranasally. […] Body weights and clinical observations were recorded on days 7, 14, and 21. On day 21, mice were euthanized by cervical dislocation. One side of lung tissue was dissected and analyzed for hydroxyproline levels as an indicator of local collagen deposition, and the other side lung was fixed in Formalin for histopathology (Quantitative staining with sirius red).

Data set [8] concerns human primary cell-based systems (BioMAP). Nature of the data set: DiscoverX BioMAP Combo ELECT panel, relative protein expression. The following applies: saracatinib 3.3 μM, relative to vehicle control. An excerpt: BioMAP panels consist of human primary cell-based systems designed to model different aspects of the human body in an in vitro format. The 12 systems available in the Diversity PLUS panel allow test agent characterization in an unbiased way across a broad set of systems modelling various human disease states. BioMAP systems are constructed with one or more primary cell types from healthy human donors, with stimuli (such as cytokines or growth factors) added to capture relevant signalling networks that naturally occur in human tissue or pathological conditions. Systems recapitulate aspects of the systemic immune response including monocyte-driven Th1 inflammation (LPS system) or T cell stimulation (SAg system), chronic Th1 inflammation driven by macrophage activation (IMphg system) and the T cell-dependent activation of B cells that occurs in germinal centers (BT system). The BE3C system (Th1) and the BF4T system (Th2) represent airway inflammation of the lung, while the MyoF system models myofibroblast-lung tissue remodelling.
Each test agent generates a signature BioMAP profile that is created from the changes in protein biomarker readouts within individual system environments. Biomarker readouts (7-17 per system) are selected for therapeutic and biological relevance, are predictive for disease outcomes or specific drug effects and are validated using agents with known mechanism of action (MoA). Each readout is measured quantitatively by immune-based methods that detect protein (e.g., ELISA) or functional assays that measure proliferation and viability. BioMAP readouts are diverse and include cell surface receptors, cytokines, chemokines, matrix molecules and enzymes.
In the Combo ELECT panel, a 4×4 combination array is created to test all mixtures of two serially diluted single test agents/drugs.

Data set [9] in a line: Saracatinib AD Phase IIa (52 weeks), safety and tolerability. It counts as in vivo, human. The following applies: Alzheimer's Disease patients.
Data set [10] has as its target Lyn (Homo sapiens, UniProt P07948). The conditions noted are these: cited from earlier work.
[11] abbreviates: 24 h, read-out: Mean IC50 ACTA2 mRNA.
[12] abbreviates: 24 h, read-out: Mean IC50 COL1A1 mRNA.
Setting [13] is: 24 h, read-out: Mean IC50 COL3A1 mRNA.
[14] abbreviates: 24 h, read-out: Mean IC50 FN1 mRNA.
Where [15] appears, read: 24 h, read-out: Mean IC50 IL-6 protein.
[16] abbreviates: 100 mg or 125 mg per day, 52 weeks, n = 79.

Sequence of Lyn (P07948 whole entry): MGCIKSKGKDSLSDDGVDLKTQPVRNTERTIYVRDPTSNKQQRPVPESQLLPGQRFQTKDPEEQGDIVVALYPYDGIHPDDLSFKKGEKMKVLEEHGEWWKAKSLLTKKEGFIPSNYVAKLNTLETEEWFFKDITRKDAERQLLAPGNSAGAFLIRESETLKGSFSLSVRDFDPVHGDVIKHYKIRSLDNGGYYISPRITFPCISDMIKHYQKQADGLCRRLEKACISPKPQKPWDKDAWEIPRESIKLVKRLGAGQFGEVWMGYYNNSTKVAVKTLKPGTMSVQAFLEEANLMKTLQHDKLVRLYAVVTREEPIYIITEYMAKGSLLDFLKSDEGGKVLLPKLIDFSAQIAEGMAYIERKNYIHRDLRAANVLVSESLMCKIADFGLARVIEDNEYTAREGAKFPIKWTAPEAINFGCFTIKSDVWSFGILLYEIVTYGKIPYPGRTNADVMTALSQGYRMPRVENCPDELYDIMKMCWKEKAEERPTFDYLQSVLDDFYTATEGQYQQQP

With `COC(=O)c1ccc2c(c1)NC(=O)/C2=C(\Nc1ccc(N(C)C(=O)CN2CCN(C)CC2)cc1)c1ccccc1` [Nintedanib], the IC50 came out at 1750 nM in data set [1] (setting [11]); 536 nM in [1] (setting [12]); 725 nM in data set [1] (setting [13]); 624 nM in data set [1] (setting [14]); 311 nM in [1] (setting [15]); 601 nM in data set [1] (24 h, read-out: Mean IC50 αSMA). For the same compound, the “cell viability / cell death” value in data set [1] is “some evidence of cell death”. For the same compound, the “inhibition of αSMA (FIG. 2)” value in data set [1] is on record as “inhibited αSMA, but at supra-therapeutic concentrations”. Moreover, the “organoid formation of airway basal cells (FIGS. 4, 5 and 6)” value (shortened to “organoid formation of airway basal cells”) in data set [2] was “little to no effect”. Also, the “Treatment Discontinuations, clinical studies IPF” value in [3] is recorded as 21% (15%). The “Treatment Discontinuations, Real-World data” value in [4] is listed as 26.3%.
As for `Cc1ccc(=O)n(-c2ccccc2)c1` [Pirfenidone], the IC50 in [1] (TGFβ-stimulated NHLF, healthy donor 197 (n = 3), 24 hours, read-out: Mean IC50 ACTA2 mRNA) is > 10000 nM. For the same compound, in [1] (TGFβ-stimulated NHLF, healthy donor 197 (n = 3), 24 hours, read-out: Mean IC50 COL1A1 mRNA), the half-maximal inhibitory concentration (IC50) was > 10000 nM. Besides, the IC50 in data set [1] (TGFβ-stimulated NHLF, healthy donor 197 (n = 3), 24 hours, read-out: Mean IC50 COL3A1 mRNA) was > 10000 nM. Moreover, in [1] (TGFβ-stimulated NHLF, healthy donor 197 (n = 3), 24 hours, read-out: Mean IC50 FN1 mRNA), the IC50 is > 10000 nM. The IC50 in [1] (TGFβ-stimulated NHLF, healthy donor 197 (n = 3), 24 hours, read-out: Mean IC50 IL-6 protein) was > 10000 nM. The IC50 in data set [1] (TGFβ-stimulated NHLF, healthy donor 197 (n = 3), 24 hours, read-out: Mean IC50 αSMA) was > 10000 nM. In addition, in data set [1], the “cell viability / cell death” value is “some evidence of cell death” and the “inhibition of αSMA (FIG. 2)” value is reported as “inhibited αSMA, but at supra-therapeutic concentrations”. Also, in data set [2], the “organoid formation of airway basal cells” value is “little to no effect”. In data set [5] (52 weeks, n = 623), the Anorexia is 13%, the Diarrhea is on record as 24.6%, the Nausea is given as 35.5% and the Vomiting is reported as 12.7%. The “Weight Decrease” value in data set [5] (52 weeks, n = 623) is listed as 10%. In data set [5] (Pirfenidone Medical Review, pirfenidone n = 345), the “Decreased Appetite” value is 9%^3. The “Treatment Discontinuations, clinical studies IPF” value in data set [5] was 14.6% (9.6%). Further, the “Treatment Discontinuations, Real-World data” value in data set [4] is given as 20.9%.
Regarding `CN1CCN(CCOc2cc(OC3CCOCC3)c3c(Nc4c(Cl)ccc5c4OCO5)ncnc3c2)CC1` [Saracatinib, N-(5-chlorobenzo[d][1,3]dioxol-4-yl)-7-(2-(4-methylpiperazin-1-yl)ethoxy)-5-((tetrahydro-2H-pyran-4-yl)oxy)quinazolin-4-amine], in [6] (1 mg/kg BID oral gavage), the highest concentration (Cmax) came to 71.5 nM and the concentration at 21 day is 2.52 nM. In addition, in data set [6] (3 mg/kg BID oral gavage), the peak level (Cmax) was 139 nM and the concentration at 21 day was 8.41 nM. For the same compound, in data set [6] (10 mg/kg BID oral gavage), the peak level (Cmax) was 390 nM and the concentration at 21 day stood at 31.8 nM. Moreover, the “hydroxyproline levels after bleomycin induced lung injury and fibrosis (FIG. 1)” value in data set [7] was “compares favourably to pirfenidone (at much lower doses) and is potentially superior to nintedanib at clinically relevant doses”. Also, the concentration for half-maximal inhibition (IC50) in data set [1] (setting [11]) is 186 nM. Moreover, the IC50 in [1] (setting [12]) was 1010 nM. Moreover, the concentration for half-maximal inhibition (IC50) in [1] (setting [13]) came out at 7990 nM. Further, in data set [1] (setting [14]), the IC50 amounted to 526 nM. For the same compound, the IC50 in [1] (setting [15]) stood at 128 nM. Further, the IC50 in data set [1] (24 h, read-out: Mean IC50 αSMA) worked out at 185 nM. In addition, in data set [1], the “cell viability / cell death” value is recorded as “without impacting cell viability” and the “inhibition of αSMA (FIG. 2)” value is “dose-dependent inhibition of αSMA”. Moreover, the cytotoxicity result in data set [2] (ABC organoids, saracatinib 8 to 600 nM) is “non-cytotoxic”. Further, the “organoid formation of airway basal cells” value in [2] was “differentiated and uniquely efficacious”. For the same compound, in [8], the “expression of MMP-9 (FIG. 7)” value is given as “decreased expression”, the “expression of N-cadherin (FIG. 7)” value is reported as “decreased expression”, the “expression of TIMP-1 (FIG. 7)” value was “decreased expression” and the “expression of VCAM-1 (FIG. 7)” value was “increased expression”. Further, in data set [8], the “expression of a-SMA (FIG. 7)” value was “increased expression”, the “expression of sIL-6 (FIG. 7)” value was “decreased expression”, the “expression of sIL-8 (FIG. 7)” value was “decreased expression” and the “expression of sVEGF (FIG. 7)” value was “decreased expression”. The “Treatment Discontinuations, clinical studies AD” value in data set [9] is 8.2% (1.2%). Besides, in data set [9] (setting [16]), the Anorexia came out at 3%, the “Decreased Appetite” value is listed as 9%, the Diarrhea worked out at 27.8% and the Nausea stood at 12.7%. Moreover, in [9] (setting [16]), the Vomiting turned out to be 5.1% and the “Weight Decrease” value was 10%. Besides, in data set [10], the IC50 is 5 nM.
